What was measured:
[1] = tested on: histamine-induced papule (skin vascular permeability); assay: Histamine-induced skin vascular permeability in rats; format: in vivo, rat; conditions: male Wistar rats, oral, 4 h after administration, inhibition of papule area vs vehicle
Protocol: (§1) (1) Histamine-H1 Receptor Binding Assay
(2) Histamine-Induced Skin Vascular Permeability in Rats
Male Wistar rats (180-210 g) were treated orally with the test compound or vehicle. Either one, four, eight or 24 hours later the rats were lightly anaesthetised with ether and a cutaneous reaction was induced by two intradermal injections of 50 μl of histamine (100 μg/ml) onto the back, followed by an intravenous injection of 3 ml/kg of Evan's Blue (5 mg/ml), both dissolved in saline. Sixty minutes later, the rats were killed by cervical dislocation and the back skin dissected free. The diameter (in millimetres) of the papule was measured in two directions and the area was calculated. Results are given as the % of inhibition at a given dose compared with the vehicle treated group.

serotonin-5HT2 receptors = molecular target: T1, serotonin-5HT2 receptors (Homo sapiens, UniProt P28223); assay: Serotonin-5HT2 receptor binding assay (3H-Ketanserin); conditions: human frontal cerebral cortex membranes, 1 nM 3H-Ketanserin; read-out: 5HT-2
T1 construct: performed in human frontal cerebral cortex membranes; from tissue; host or cells: human frontal cerebral cortex membranes
T1 sequence (P28223 whole entry): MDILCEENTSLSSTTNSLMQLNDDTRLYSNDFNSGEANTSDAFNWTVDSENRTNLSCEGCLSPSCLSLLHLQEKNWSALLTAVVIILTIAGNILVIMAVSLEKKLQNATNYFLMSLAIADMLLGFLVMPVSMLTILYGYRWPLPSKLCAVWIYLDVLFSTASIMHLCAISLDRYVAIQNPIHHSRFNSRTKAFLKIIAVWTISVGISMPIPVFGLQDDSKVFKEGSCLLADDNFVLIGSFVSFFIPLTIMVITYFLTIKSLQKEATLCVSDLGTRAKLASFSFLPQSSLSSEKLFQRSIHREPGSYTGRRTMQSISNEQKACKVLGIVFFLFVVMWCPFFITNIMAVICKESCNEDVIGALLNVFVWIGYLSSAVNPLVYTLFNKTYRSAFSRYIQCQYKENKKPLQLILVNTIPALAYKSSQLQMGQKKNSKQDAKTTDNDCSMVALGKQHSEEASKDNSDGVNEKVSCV
Protocol: as §1
(3) Serotonin-5HT2 Receptor Binding Assay
The study of binding to serotonin-5HT2 receptors was performed in human frontal cerebral cortex membranes as described previously (Pazos et al., Eur. J. of Pharmacol, 1985, 106, 531-538). Briefly, the membrane suspensions (170 μg/ml) were incubated at 37° C. with 1 nM 3H-Ketanserin and different concentrations of the test compounds in a final volume of 250 μl. Binding reactions were terminated by filtration after 30 minutes of incubation under constant shaking and the bound radioactivity was measured. The non-specific binding was estimated in the presence of 10 μM mianserin. The affinity of each test compound to the receptor was determined by using at least six different concentrations run in duplicate. IC50 values were calculated by non-linear regression using SAS.

histamine-H1 receptors = histamine-H1 receptors (Cavia porcellus, UniProt P31389); assay: Histamine-H1 receptor binding assay ([3H]-mepyramine); conditions: guinea pig cerebellum membranes, 0.7 nM [3H]-mepyramine
Sequence of histamine-H1 receptors (P31389 whole entry): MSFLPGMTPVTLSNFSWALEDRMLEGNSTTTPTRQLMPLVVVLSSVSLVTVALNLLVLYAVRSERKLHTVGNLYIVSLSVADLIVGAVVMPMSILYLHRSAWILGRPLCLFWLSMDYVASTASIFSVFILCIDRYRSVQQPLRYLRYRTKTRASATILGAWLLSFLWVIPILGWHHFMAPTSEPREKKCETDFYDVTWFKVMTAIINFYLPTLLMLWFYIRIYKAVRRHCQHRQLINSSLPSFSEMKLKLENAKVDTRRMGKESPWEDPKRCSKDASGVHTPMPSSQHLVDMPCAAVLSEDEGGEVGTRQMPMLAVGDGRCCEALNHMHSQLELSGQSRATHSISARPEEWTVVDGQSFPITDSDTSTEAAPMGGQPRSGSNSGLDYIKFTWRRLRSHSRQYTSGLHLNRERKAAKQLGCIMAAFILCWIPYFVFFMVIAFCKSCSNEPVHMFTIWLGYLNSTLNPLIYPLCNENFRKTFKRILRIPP
Protocol: as §1
The study of binding to histamine-H1 receptors was performed in guinea pig cerebellum membranes as described by Chang et al., J. Neurochem, 1979, 32, 1653-1663. Briefly, the membrane suspensions (160 μg/ml) were incubated at 30° C. with 0.7 nM [^3H]-mepyramine and different concentrations of the test compounds in a final volume of 250 μl. Binding reactions were terminated by filtration after 30 min of incubation and the bound radioactivity was determined. The non-specific binding was measured in the presence of 10 μM of promethazine. The affinity of each test compound to the receptor was determined by using at least six different concentrations run in duplicate. IC50 values were obtained by non-linear regression by use of SAS on a DEC AXP computer.

| Structure (SMILES) | papule (4h) % inh a 1 mg/Kg [1] [%] | IC50 (serotonin-5HT2 receptors) [nM] | IC50 (histamine-H1 receptors) [nM] |
| --- | --- | --- | --- |
| COCCn1cc(C2CCN(Cc3ccc(OC)c(C(=O)O)c3)CC2)c2ccc(F)cc21 [Example 5, 5-{4-[6-fluoro-1-(2-methoxyethyl)-1H-indol-3-yl]piperidin-1-ylmethyl}-2-methoxybenzoic acid] | 96 | > 10000 | 245 |
| CCOCCn1cc(C2CCN(Cc3ccc(OC)c(C(=O)O)c3)CC2)c2ccc(F)cc21 [Example 4, 5-{4-[1-(2-ethoxyethyl)-6-fluoro-1H-indol-3-yl]piperidin-1-ylmethyl}-2-methoxybenzoic acid] | 89 | 4300 | 160 |
| CCCCn1cc(C2CCN(Cc3ccc(OC)c(C(=O)O)c3)CC2)c2ccccc21 [Example 3, 5-[4-(1-butyl-1H-indol-3-yl)-piperidin-1-ylmethyl]-2-methoxybenzoic acid] | 100 | 4500 | 130 |
| COCCn1cc(C2CCN(Cc3ccc(OC)c(C(=O)O)c3)CC2)c2ccccc21 [Example 2, 2-methoxy-5-{4-[1-(2-methoxyethyl)-1H-indol-3-yl]piperidin-1-ylmethyl}benzoic acid] | 96 | > 10000 | 470 |
| CCOCCn1cc(C2CCN(Cc3ccc(OC)c(C(=O)O)c3)CC2)c2ccccc21 [Example 1, 5-{4-[1-(2-ethoxyethyl)-1H-indol-3-yl]piperidin-1-ylmethyl}-2-methoxybenzoic acid] | 88 | 5350 | 145 |

Reference: patent US7560471B2, “Indolylpiperidine derivatives as potent antihistaminic and antiallergic agents” (Laboratorios Almirall S.A., priority 2002, dated 2009)
